One may read the EC50 as the concentration at which the effect is half-maximal.

human NAMPT, sequence (P43490 whole entry): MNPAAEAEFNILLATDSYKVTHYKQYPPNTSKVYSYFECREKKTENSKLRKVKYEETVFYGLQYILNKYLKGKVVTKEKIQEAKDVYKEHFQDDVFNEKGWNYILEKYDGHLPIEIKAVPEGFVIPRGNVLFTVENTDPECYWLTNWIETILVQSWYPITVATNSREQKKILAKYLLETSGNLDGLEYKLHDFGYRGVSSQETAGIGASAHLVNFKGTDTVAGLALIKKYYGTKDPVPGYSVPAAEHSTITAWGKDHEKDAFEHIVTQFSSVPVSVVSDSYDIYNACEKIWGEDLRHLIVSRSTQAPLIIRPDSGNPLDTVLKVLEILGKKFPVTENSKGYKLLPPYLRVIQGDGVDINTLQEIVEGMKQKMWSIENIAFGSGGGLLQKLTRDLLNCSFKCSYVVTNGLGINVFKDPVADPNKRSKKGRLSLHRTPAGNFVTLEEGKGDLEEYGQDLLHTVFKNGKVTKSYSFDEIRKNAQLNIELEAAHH

This assay has as its target human NAMPT (Homo sapiens (Human), UniProt P43490). As to the kind of experiment: NMN fluorescence biochemical assay (human recombinant NAMPT enzyme assay). The essentials:
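NMN formed was detected by fluorescence (Ex/Em 355/460 nm) after acetophenone, KOH and formic acid derivatization. The cell-free reaction ran 60 min at ambient temperature with 6 nM human NAMPT, 150 μM nicotinamide, 20 μM PRPP, 2.5 mM ATP, pH 7.2 HEPES, and compound dose responses.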
In the case of `COC(=O)N1CC2CC(C1)C2Cc1ccc(NC(=O)OCc2cnco2)cc1` (stereo not shown) [Compound 435, methyl 6-(4-(((oxazol-5-ylmethoxy)carbonyl)amino)benzyl)-3-azabicyclo[3.1.1]heptane-3-carboxylate], the “AC1.4 Human” value amounted to 0.08 µM and the concentration giving a half-maximal response (EC50) amounted to 7.52 µM.
For `CN(C)C(=O)N1CC2CC(C1)C2Cc1ccc(NC(=O)OCc2cnco2)cc1` (stereo not shown) [Compound 436, oxazol-5-ylmethyl (4-((3-(dimethylcarbamoyl)-3-azabicyclo[3.1.1]heptan-6-yl)methyl)phenyl)carbamate] the same measures were 0.08 µM and 6.04 µM.
In the same order, the values of `CC(C)C(=O)N1CC2CC(C1)C2Cc1ccc(NC(=O)OCc2cnco2)cc1` (stereo not shown) [Compound 437, oxazol-5-ylmethyl (4-((3-isobutyryl-3-azabicyclo[3.1.1]heptan-6-yl)methyl)phenyl)carbamate] are 0.27 µM and 9.67 µM.
In the same order, the values of `CC(=O)N1CC2CC(C1)C2Cc1ccc(NC(=O)OCc2cnco2)cc1` (stereo not shown) [Compound 438, oxazol-5-ylmethyl (4-((3-acetyl-3-azabicyclo[3.1.1]heptan-6-yl)methyl)phenyl)carbamate] are 0.04 µM and 2.7 µM.
Take `O=C(Nc1ccc(CC2C3CC2CN(C2COC2)C3)cc1)OCc1cnco1` (stereo not shown) [Compound 439, oxazol-5-ylmethyl (4-((3-(oxetan-3-yl)-3-azabicyclo[3.1.1]heptan-6-yl)methyl)phenyl)carbamate]: the “AC1.4 Human” value is 1.47 µM and the EC50 was 25.6 µM.
Turning to `CN(C)S(=O)(=O)N1CCC(Cc2ccc(NC(=O)OCc3cnco3)cc2)CC12CC2` (stereo not shown) [Compound 440, oxazol-5-ylmethyl (4-((4-(N,N-dimethylsulfamoyl)-4-azaspiro[2.5]octan-7-yl)methyl)phenyl)carbamate], the “AC1.4 Human” value was 0.21 µM and the EC50 is 3.53 µM.
Regarding `O=C(Nc1ccc(CC2CCN(C3COC3)C3(CC3)C2)cc1)OCc1cnco1` (stereo not shown) [Compound 441, oxazol-5-ylmethyl (4-((4-(oxetan-3-yl)-4-azaspiro[2.5]octan-7-yl)methyl)phenyl)carbamate], the “AC1.4 Human” value is 0.17 µM and the concentration for a half-maximal effect (EC50) was 10.7 µM.
`CN(C)C(=O)N1CCC(Cc2ccc(NC(=O)OCc3cnco3)cc2)CC12CC2` (stereo not shown) [Compound 442, oxazol-5-ylmethyl (4-((4-(dimethylcarbamoyl)-4-azaspiro[2.5]octan-7-yl)methyl)phenyl)carbamate]: the “AC1.4 Human” value was 0.12 µM and the concentration for a half-maximal effect (EC50) came out at 3.78 µM.
As to `COC(=O)N1CCC(Cc2ccc(NC(=O)OCc3cnco3)cc2)CC12CC2` (stereo not shown) [Compound 443, methyl 7-(4-(((oxazol-5-ylmethoxy)carbonyl)amino)benzyl)-4-azaspiro[2.5]octane-4-carboxylate], the “AC1.4 Human” value stood at 0.22 µM and the EC50 turned out to be 6.45 µM.
For `CC(=O)N1CCC(Cc2ccc(NC(=O)OCc3cnco3)cc2)CC12CC2` (stereo not shown) [Compound 444, oxazol-5-ylmethyl (4-((4-acetyl-4-azaspiro[2.5]octan-7-yl)methyl)phenyl)carbamate] the same measures were 0.13 µM and 6.31 µM.
With `CC(=O)N1CC2CCC(C1)C2c1ccc(NC(=O)OCc2cnco2)cc1` (stereo not shown) [Compound 445, oxazol-5-ylmethyl (4-(3-acetyl-3-azabicyclo[3.2.1]octan-8-yl)phenyl)carbamate], the “AC1.4 Human” value is 0.56 µM and the EC50 was determined as 33.5 µM.
Regarding `CC(C)OC(=O)N1CCC(Cc2ccc(NC(=O)OCc3cnco3)cc2)CC1` [Compound 446, isopropyl 4-(4-(((oxazol-5-ylmethoxy)carbonyl)amino)benzyl)piperidine-1-carboxylate], the “AC1.4 Human” value was determined as 0.73 µM and the 50% effective concentration (EC50) is 19.3 µM.
Regarding `CN(C)S(=O)(=O)N1CCC(Cc2ccc(NC(=O)OCc3cnco3)cc2F)CC1` [Compound 447, oxazol-5-ylmethyl (4-((1-(N,N-dimethylsulfamoyl)piperidin-4-yl)methyl)-3-fluorophenyl)carbamate], the “AC1.4 Human” value came out at 0.08 µM and the EC50 is 2.31 µM.
`CS(=O)(=O)N1CCC(Cc2ccc(NC(=O)OCc3cnco3)cc2F)CC1` [Compound 448, oxazol-5-ylmethyl (3-fluoro-4-((1-(methylsulfonyl)piperidin-4-yl)methyl)phenyl)carbamate]: the “AC1.4 Human” value stood at 0.13 µM and the EC50 was 4.5 µM.
With `COC(=O)N1CCC(Cc2ccc(NC(=O)OCc3cnco3)cc2F)CC1` [Compound 450, methyl 4-(2-fluoro-4-(((oxazol-5-ylmethoxy)carbonyl)amino)benzyl)piperidine-1-carboxylate], the “AC1.4 Human” value was found to be 0.13 µM and the EC50 was found to be 4.97 µM.
In the case of `CC(=O)N1CCC(Cc2ccc(NC(=O)OCc3cnco3)cc2F)CC1` [Compound 451, oxazol-5-ylmethyl (4-((1-acetylpiperidin-4-yl)methyl)-3-fluorophenyl)carbamate], the “AC1.4 Human” value came out at 0.16 µM and the EC50 came to 7.79 µM.
In the same order, the values of `O=C(Nc1ccc(CC2CCN(C3COC3)CC2)c(F)c1)OCc1cnco1` [Compound 452, oxazol-5-ylmethyl (3-fluoro-4-((1-(oxetan-3-yl)piperidin-4-yl)methyl)phenyl)carbamate] are 0.18 µM and 13 µM.
For `CS(=O)(=O)N1CCC(Cc2ccc(NC(=O)OCc3cnco3)cc2)C2CC21` (stereo not shown) [Compound 453, oxazol-5-ylmethyl (4-((2-(methylsulfonyl)-2-azabicyclo[4.1.0]heptan-5-yl)methyl)phenyl)carbamate] the same measures were 0.35 µM and 44 µM.
For `CN(C)C(=O)N1CCC(Cc2ccc(NC(=O)OCc3cnco3)cc2)C2CC21` (stereo not shown) [Compound 454, oxazol-5-ylmethyl (4-((2-(dimethylcarbamoyl)-2-azabicyclo[4.1.0]heptan-5-yl)methyl)phenyl)carbamate] the same measures were 0.14 µM and 16.1 µM.
With `O=C(Nc1ccc(CC2CCN(C3COC3)C3CC23)cc1)OCc1cnco1` (stereo not shown) [Compound 455, oxazol-5-ylmethyl (4-((2-(oxetan-3-yl)-2-azabicyclo[4.1.0]heptan-5-yl)methyl)phenyl)carbamate], the “AC1.4 Human” value came out at 0.84 µM and the EC50 worked out at 32.4 µM.
Consider `COC(=O)N1CCC(Cc2ccc(NC(=O)OCc3cnco3)cc2)C2CC21` (stereo not shown) [Compound 456, methyl 5-(4-(((oxazol-5-ylmethoxy)carbonyl)amino)benzyl)-2-azabicyclo[4.1.0]heptane-2-carboxylate], for which the “AC1.4 Human” value was determined as 0.23 µM and the EC50 is 17.8 µM.
With `CC(=O)N1CCC(Cc2ccc(NC(=O)OCc3cnco3)cc2)C2CC21` (stereo not shown) [Compound 457, oxazol-5-ylmethyl (4-((2-acetyl-2-azabicyclo[4.1.0]heptan-5-yl)methyl)phenyl)carbamate], the “AC1.4 Human” value came out at 0.250 µM and the EC50 is 21.6 µM.
For the compound `O=C(Nc1ccc(CC2CCN(C(=O)N3CCOCC3)CC2)cc1)OCc1cnco1` [Compound 458, oxazol-5-ylmethyl (4-((1-(morpholine-4-carbonyl)piperidin-4-yl)methyl)phenyl)carbamate], the “AC1.4 Human” value worked out at 0.13 µM and the half-maximal effective concentration (EC50) came out at 15.2 µM.
For `O=C(Nc1ccc(CC2CCN(S(=O)(=O)C3CCC3)CC2)cc1)OCc1cnco1` [Compound 459, oxazol-5-ylmethyl (4-((1-(cyclobutylsulfonyl)piperidin-4-yl)methyl)phenyl)carbamate] the same measures were 0.18 µM and 7.06 µM.
For `O=C(Nc1ccc(CC2CCN(S(=O)(=O)C3CC3)CC2)cc1)OCc1cnco1` [Compound 460, oxazol-5-ylmethyl (4-((1-(cyclopropylsulfonyl)piperidin-4-yl)methyl)phenyl)carbamate] the same measures were 0.24 µM and 12.2 µM.
Regarding `O=C(Nc1ccc(CC2CCN(C(=O)N3CCCCC3)CC2)cc1)OCc1cnco1` [Compound 461, oxazol-5-ylmethyl (4-((1-(piperidine-1-carbonyl)piperidin-4-yl)methyl)phenyl)carbamate], the “AC1.4 Human” value amounted to 0.13 µM and the EC50 was 9.34 µM.
In the same order, the values of `O=C(Nc1ccc(CC2CCN(C(=O)N3CCCC3)CC2)cc1)OCc1cnco1` [Compound 462, oxazol-5-ylmethyl (4-((1-(pyrrolidine-1-carbonyl)piperidin-4-yl)methyl)phenyl)carbamate] are 0.18 µM and 13.3 µM.
Consider `O=C(Nc1ccc(CC2CCN(C(=O)N3CC(F)(F)C3)CC2)cc1)OCc1cnco1` [Compound 463, oxazol-5-ylmethyl (4-((1-(3,3-difluoroazetidine-1-carbonyl)piperidin-4-yl)methyl)phenyl)carbamate], for which the “AC1.4 Human” value was 0.42 µM and the EC50 is 43.6 µM.
On to `O=C(Nc1ccc(CC2CCN(S(=O)(=O)N3CCC3)CC2)cc1)OCc1cnco1` [Compound 465, oxazol-5-ylmethyl (4-((1-(azetidin-1-ylsulfonyl)piperidin-4-yl)methyl)phenyl)carbamate], for which the “AC1.4 Human” value worked out at 0.14 µM and the EC50 was 7.25 µM.
In the same order, the values of `O=C(Nc1ccc(CC2CCN(C3COC3)CC2)cc1)OCc1cncs1` [Compound 466, thiazol-5-ylmethyl (4-((1-(oxetan-3-yl)piperidin-4-yl)methyl)phenyl)carbamate] are 1.19 µM and 14.5 µM.
For `O=C(Nc1ccc(CC2CCN(CC(F)(F)F)CC2)cc1)OCc1cncs1` [Compound 467, thiazol-5-ylmethyl (4-((1-(2,2,2-trifluoroethyl)piperidin-4-yl)methyl)phenyl)carbamate] the same measures were 1.07 µM and 14.5 µM.
With `O=C(Nc1ccc(CC2CCN(C(=O)N3CCC3)CC2)cc1)OCc1cnco1` [Compound 468, oxazol-5-ylmethyl (4-((1-(azetidine-1-carbonyl)piperidin-4-yl)methyl)phenyl)carbamate], the “AC1.4 Human” value was 0.13 µM and the EC50 came to 14.5 µM.

Source of the values: patent US20240279215A1 (Cytokinetics, Incorporated, priority 2022, published 2024).
